Read-outs that look alike come from different tables or passages of the source.
Columns and labels:
[1] = target: T1, His-p53 Y220C (94-294) protein (Homo sapiens, UniProt P04637, Y220C); assay: In vitro DNA binding assay (HTRF); assay type: biochemical; settings: % activation normalized to 2 μM Ref-1a high control
T1 construct: His-p53 Y220C (94-294) protein

[2] = test system: NUGC4 (P53 WT); assay: Cell viability assay (CellTiter-Glo, 6 days), NUGC4; assay type: cell-based; settings: Homo sapiens, NUGC-4, 144 h; cell viability, 6 days, CellTiter-Glo; read-out: NUGC4 (P53 WT) IC50
Outline: (§1)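 Cells seeded overnight at 37 °C, then exposed to compounds in medium for 6 days. Viability read by CellTiter-Glo luminescence, normalized to DMSO cell wells (high) and medium-only wells (low); IC50 taken as concentration giving 50% viability from 4-parameter logistic fit.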

[3] = test system: NUGC3 (P53 Y220C); assay: Cell viability assay (CellTiter-Glo, 6 days), NUGC3; assay type: cell-based; settings: Homo sapiens, NUGC-3, 144 h; cell viability, 6 days, CellTiter-Glo; read-out: NUGC3 (P53 Y220C) IC50
Outline: as §1

[4] = test system: NUGC-3_P53_Luc single clonal cell line (p53 Y220C); assay: Reporter gene assay (p53 RE luciferase); assay type: cell-based; settings: Homo sapiens, luciferase reporter, 6 hours, normalized to Ref-1a (10 μM) high control, read-out: p53(Y220C)_NUGC-3 EC50
Outline: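 NUGC-3 cells stably carrying a p53 RE-driven luc2P reporter, washed free of phenol red, exposed to compound for 6 h at 37 °C; luminescence read. Activity normalised between DMSO (low) and Ref-1a 10 μM (high) controls; EC50 from 4-parameter logistic fit or Excel as concentration giving 50% activity.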

For COc1cc(P(C)(C)=O)ccc1NCC#Cc1sc2c(N[C@@H]3CCN(C4COC4)C[C@@H]3F)cccc2c1CC(F)(F)F (racemic) [Example 75, (4-((3-(7-(((Z)-3-fluoro-1-(oxetan-3-yl)piperidin-4-yl)amino)-3-(2,2,2-trifluoroethyl)benzo[b]thiophen-2-yl)prop-2-yn-1-yl)amino)-3-methoxyphenyl)dimethylphosphine oxide], the EC50 [1] was 82 nM, the IC50 [2] was 5340 nM and the IC50 [3] was 1020 nM. It also gave an EC50 ([4]; NUGC-3) of 160 nM.

For COCCNC(=O)c1ccc(NCC#Cc2sc3c(N[C@@H]4CCN(C)C[C@@H]4F)cccc3c2CC(F)(F)F)c(OC)c1 (relative stereo) [Example 85, 4-((3-(7-(((Z)-3-fluoro-1-methylpiperidin-4-yl)amino)-3-(2,2,2-trifluoroethyl)benzo[b]thiophen-2-yl)prop-2-yn-1-yl)amino)-3-methoxy-N-(2-methoxyethyl)benzamide], the EC50 [1] was 75 nM, the IC50 [2] was 8240 nM and the IC50 [3] was 1540 nM. It also gave an EC50 ([4]; NUGC-3) of 220 nM.

Compound COc1cc(-c2ncn(C)n2)ccc1NCC#Cc1sc2c(N[C@@H]3CCN(C)C[C@@H]3F)cccc2c1CC(F)(F)F [Example 172, (3S,4R)-3-fluoro-N-(2-(3-((2-methoxy-4-(1-methyl-1H-1,2,4-triazol-3-yl)phenyl)amino)prop-1-yn-1-yl)-3-(2,2,2-trifluoroethyl)benzo[b]thiophen-7-yl)-1-methylpiperidin-4-amine] has an EC50 [1] of 60 nM, an IC50 [2] of 7550 nM and an IC50 [3] of 1510 nM. For the same compound, the EC50 ([4]; NUGC-3) was 180 nM.

With COc1nc(P(C)(C)=O)ccc1NCC#Cc1sc2c(N[C@@H]3CCN(C)C[C@@H]3F)cccc2c1CC(F)(F)F [Example 153, (5-((3-(7-(((3S,4R)-3-fluoro-1-methylpiperidin-4-yl)amino)-3-(2,2,2-trifluoroethyl)benzo[b]thiophen-2-yl)prop-2-yn-1-yl)amino)-6-methoxypyridin-2-yl)dimethylphosphine oxide] the EC50 [1] was 31 nM, the IC50 [2] was 4070 nM and the IC50 [3] was 370 nM. It also gave an EC50 ([4]; NUGC-3) of 100 nM.

CN1CC[C@@H](Nc2cccc3c(CC(F)(F)F)c(C#CCNc4ccc(P(C)(C)=O)c5c4OCO5)sc23)[C@@H](F)C1 [Example 163, (7-((3-(7-(((3S,4R)-3-fluoro-1-methylpiperidin-4-yl)amino)-3-(2,2,2-trifluoroethyl)benzo[b]thiophen-2-yl)prop-2-yn-1-yl)amino)benzo[d][1,3]dioxol-4-yl)dimethylphosphine oxide] gave an EC50 [1] of 50 nM, an IC50 [2] of 3820 nM and an IC50 [3] of 1210 nM. For the same compound, the EC50 ([4]; NUGC-3) was 180 nM.

Compound CNC(=O)c1ccc(NCC#Cc2sc3c(N[C@H]4CCN(C)C[C@H]4F)cccc3c2CC(F)(F)F)c(OC)c1 (racemic) [Example 41, 4-((3-(7-(((3R,4S)-3-fluoro-1-methylpiperidin-4-yl)amino)-3-(2,2,2-trifluoroethyl)benzo[b]thiophen-2-yl)prop-2-yn-1-yl)amino)-3-methoxy-N-methylbenzamide] has an EC50 [1] of 57 nM, an IC50 [2] of 6140 nM and an IC50 [3] of 1540 nM. It also gave an EC50 ([4]; NUGC-3) of 600 nM.

In the case of COc1cc(C(=O)NC2CCN(C)CC2(F)F)ccc1NCC#Cc1sc2c(N[C@@H]3CCN(C)C[C@@H]3F)cccc2c1CC(F)(F)F (relative stereo) [Example 94, N-(3,3-difluoro-1-methylpiperidin-4-yl)-4-((3-(7-(((Z)-3-fluoro-1-methylpiperidin-4-yl)amino)-3-(2,2,2-trifluoroethyl)benzo[b]thiophen-2-yl)prop-2-yn-1-yl)amino)-3-methoxybenzamide], the EC50 [1] is reported as 85 nM, the IC50 [2] is reported as 2750 nM and the IC50 [3] is reported as 1840 nM. It also gave an EC50 ([4]; NUGC-3) of 190 nM.

In the case of COc1cc(P(C)(C)=O)ccc1NCC#Cc1sc2c(N[C@@H]3CCN(C4CCOCC4)C[C@@H]3F)cccc2c1CC(F)(F)F (racemic) [Example 73, (Z)-(4-((3-(7-((3-fluoro-1-(tetrahydro-2H-pyran-4-yl)piperidin-4-yl)amino)-3-(2,2,2-trifluoroethyl)benzo[b]thiophen-2-yl)prop-2-yn-1-yl)amino)-3-methoxyphenyl)dimethylphosphine oxide], the EC50 [1] is reported as 70 nM, the IC50 [2] is reported as 3420 nM and the IC50 [3] is reported as 770 nM. It also gave an EC50 ([4]; NUGC-3) of 130 nM.

[2H]C([2H])([2H])N1CC[C@@H](Nc2cccc3c(CC(F)(F)F)c(C#CCNc4ccc(P(C)(C)=O)cc4OC)sc23)[C@@H](F)C1 [Example 210, (4-((3-(7-(((3S,4R)-3-fluoro-1-(methyl-d3)piperidin-4-yl)amino)-3-(2,2,2-trifluoroethyl)benzo[b]thiophen-2-yl)prop-2-yn-1-yl)amino)-3-methoxyphenyl)dimethylphosphine oxide] gave an EC50 [1] of 16 nM, an IC50 [2] of 12000 nM and an IC50 [3] of 1280 nM. It also gave an EC50 ([4]; NUGC-3) of 30 nM.

COc1cc(P(C)(C)=O)ccc1NCC#Cc1sc2c(NC3[C@@H]4COC[C@H]3CN(C)C4)cccc2c1CC(F)(F)F (single isomer, unassigned) [Example 196] was tested, and the EC50 [1] was 67 nM, the IC50 [2] was 18600 nM and the IC50 [3] was 6710 nM. The EC50 ([4]; NUGC-3, 6 h) was 660 nM.

COc1cc(P(C)(C)=O)ccc1NCC#Cc1sc2c(N[C@@H]3CCN(C4CCC4)C[C@@H]3F)cccc2c1CC(F)(F)F (racemic) [Example 103, (4-((3-(7-(((Z)-1-cyclobutyl-3-fluoropiperidin-4-yl)amino)-3-(2,2,2-trifluoroethyl)benzo[b]thiophen-2-yl)prop-2-yn-1-yl)amino)-3-methoxyphenyl)dimethylphosphine oxide] showed an EC50 [1] of 91 nM, an IC50 [2] of 2650 nM and an IC50 [3] of 1280 nM. It also gave an EC50 ([4]; NUGC-3) of 210 nM.

— patent US20240400591A1 (Jacobio Pharmaceuticals Co., Ltd., priority 2021, published 2024)
